Measured values reported in patent US12377175B2, “Trifunctional constructs with tunable pharmacokinetics useful in imaging and anti-tumor therapies” (Cornell University, priority 2016, dated 2025).
Where “and” joins values, the source holds several entries; their conditions need not be identical. Identical values can stand only once.

Test system: LNCaP xenograft tumor-bearing mice
Assay: Biodistribution of 225Ac-macropa-RPS-070 in LNCaP xenograft mice
Format: in vivo, mouse
Settings: for Organ distribution, Blood, Mean / Organ distribution, Bone, Mean / Organ distribution, Heart, Mean / Organ distribution, Kidneys, Mean / Organ distribution, Large Intestine, Mean / Organ distribution, Liver, Mean / Organ distribution, Lungs, Mean / Organ distribution, Muscle, Mean / Organ distribution, Pancreas, Mean / Organ distribution, Small Intestine, Mean / Organ distribution, Spleen, Mean / Organ distribution, Stomach, Mean / Organ distribution, Tumor, Mean: n = 5
Method: Cell Culture. […] Cell culture supplies were from Invitrogen unless otherwise noted.
Inoculation of Mice with Xenografts. All animal studies were approved by the Institutional Animal Care and Use Committee of Weill Cornell Medicine and were undertaken in accordance with the guidelines set forth by the USPHS Policy on Humane Care and Use of Laboratory Animals. Animals were housed under standard conditions in approved facilities with 12 h light/dark cycles. Food and water was provided ad libitum throughout the course of the studies. Hairless male nu/nu mice were purchased from the Jackson Laboratory. For inoculation in mice, LNCaP cells were suspended at 4×10^7 cells/mL in a 1:1 mixture of PBS:Matrigel (BD Biosciences). Each mouse was injected in the left flank with 0.25 mL of the cell suspension. Biodistributions were conducted when tumors were in the range 100-400 mm^3.
Biodistribution of […] in LNCaP xenograft mice. Fifteen LNCaP xenograft tumor-bearing mice (5 per time point) were injected intravenously with a bolus injection of 85-95 kBq and 100 ng ([…]) of each ligand. The mice were sacrificed by cervical dislocation at 4, 24 and 96 h post injection. A blood sample was removed, and a full biodistribution study was conducted on the following organs (with contents): heart, lungs, liver, small intestine, large intestine, stomach, spleen, pancreas, kidneys, muscle, bone, and tumor. Tissues were weighed and counted on a 2470 Wizard Automatic Gamma Counter (Perkin Elmer). 1% ID/mL samples were counted prior to and following each set of tissue samples to enable decay correction to be undertaken. Counts were corrected for decay and for activity injected, and tissue uptake was expressed as percent injected dose per gram (% ID/g). Standard error measurement was calculated for each data point.

`O=C(O)CC[C@H](NC(=O)N[C@@H](CCCCNC(=O)Nc1cccc(-c2cn(CCOCCOCCOCCOCCOCCOCCC(=O)N[C@@H](CCCCNC(=S)Nc3cc(CN4CCOCCOCCN(Cc5cccc(C(=O)[O-])n5)CCOCCOCC4)nc(C(=O)[O-])c3)C(=O)N[C@@H](CCCCNC(=O)Cc3ccc(I)cc3)C(=O)O)nn2)c1)C(=O)O)C(=O)O.[225Ac+3]` [225Ac-macropa-RPS-070] was tested, and the “Organ distribution, Blood, Mean” value (24 h after i.v. injection) was 0.2908 % ID/g, the “Organ distribution, Bone, Mean” value (24 h after i.v. injection) was 0.9764 % ID/g and the “Organ distribution, Heart, Mean” value (24 h after i.v. injection) was 0.4964 % ID/g. The “Organ distribution, Kidneys, Mean” value (24 h after i.v. injection) was 4.192 % ID/g, the “Organ distribution, Large Intestine, Mean” value (24 h after i.v. injection) was 0.1315 % ID/g and the “Organ distribution, Liver, Mean” value (24 h after i.v. injection) was 1.364 % ID/g. For the same compound, the “Organ distribution, Lungs, Mean” value (24 h after i.v. injection) was 0.4653 % ID/g, the “Organ distribution, Muscle, Mean” value (24 h after i.v. injection) was 0.5603 % ID/g and the “Organ distribution, Pancreas, Mean” value (24 h after i.v. injection) was 0.3891 % ID/g. For the same compound, the “Organ distribution, Small Intestine, Mean” value (24 h after i.v. injection) was 0.09473 % ID/g, the “Organ distribution, Spleen, Mean” value (24 h after i.v. injection) was 0.6122 % ID/g and the “Organ distribution, Stomach, Mean” value (24 h after i.v. injection) was 0.1326 % ID/g. For the same compound, the “Organ distribution, Tumor, Mean” value (24 h after i.v. injection) was 8.17 % ID/g, the “Organ distribution, Blood, individual mice 1-5” value (96 h after i.v. injection) was 0.1904 % ID/g and 0.1919 % ID/g and 0.1521 % ID/g and 0.1653 % ID/g and 0.2382 % ID/g and the “Organ distribution, Bone, individual mice 1-5” value (96 h after i.v. injection) was 0.8639 % ID/g and 0.8687 % ID/g and 0.8383 % ID/g and 1.122 % ID/g and 0.8204 % ID/g. For the same compound, the “Organ distribution, Heart, individual mice 1-5” value (96 h after i.v. injection) was 0.3994 % ID/g and 0.424 % ID/g and 0.4286 % ID/g and 0.4459 % ID/g and 0.456 % ID/g, the “Organ distribution, Kidneys, individual mice 1-5” value (96 h after i.v. injection) was 1.303 % ID/g and 1.3239 % ID/g and 2.004 % ID/g and 1.399 % ID/g and 1.46 % ID/g and the “Organ distribution, Large Intestine, individual mice 1-5” value (96 h after i.v. injection) was 0.04349 % ID/g and 0.09663 % ID/g and 0.04522 % ID/g and 0.04198 % ID/g and 0.03927 % ID/g. For the same compound, the “Organ distribution, Liver, individual mice 1-5” value (96 h after i.v. injection) was 0.7941 % ID/g and 0.8144 % ID/g and 0.733 % ID/g and 0.7917 % ID/g and 0.7942 % ID/g, the “Organ distribution, Lungs, individual mice 1-5” value (96 h after i.v. injection) was 0.3016 % ID/g and 0.5091 % ID/g and 0.4694 % ID/g and 0.3781 % ID/g and 0.3698 % ID/g and the “Organ distribution, Muscle, individual mice 1-5” value (96 h after i.v. injection) was 0.3022 % ID/g and 0.5249 % ID/g and 0.2509 % ID/g and 0.2982 % ID/g and 0.2528 % ID/g. For the same compound, the “Organ distribution, Pancreas, individual mice 1-5” value (96 h after i.v. injection) was 0.09848 % ID/g and 0.377 % ID/g and 0.3055 % ID/g and 0.3162 % ID/g and 0.3335 % ID/g, the “Organ distribution, Small Intestine, individual mice 1-5” value (96 h after i.v. injection) was 0.04372 % ID/g and 0.0577 % ID/g and 0.03752 % ID/g and 0.04431 % ID/g and 0.04136 % ID/g and the “Organ distribution, Spleen, individual mice 1-5” value (96 h after i.v. injection) was 0.4837 % ID/g and 0.394 % ID/g and 0.4426 % ID/g and 0.4348 % ID/g and 0.5397 % ID/g. The “Organ distribution, Stomach, individual mice 1-5” value (96 h after i.v. injection) was 0.03442 % ID/g and 0.04708 % ID/g and 0.03448 % ID/g and 0.02845 % ID/g and 0.02366 % ID/g, the “Organ distribution, Tumor, individual mice 1-5” value (96 h after i.v. injection) was 4.043 % ID/g and 4.078 % ID/g and 6.74 % ID/g and 4.581 % ID/g and 4.845 % ID/g and the “Organ distribution, Blood, Mean” value (96 h after i.v. injection) was 0.1876 % ID/g. For the same compound, the “Organ distribution, Bone, Mean” value (96 h after i.v. injection) was 0.9027 % ID/g, the “Organ distribution, Heart, Mean” value (96 h after i.v. injection) was 0.4333 % ID/g and the “Organ distribution, Kidneys, Mean” value (96 h after i.v. injection) was 1.4978 % ID/g. The “Organ distribution, Large Intestine, Mean” value (96 h after i.v. injection) was 0.05332 % ID/g, the “Organ distribution, Liver, Mean” value (96 h after i.v. injection) was 0.7855 % ID/g and the “Organ distribution, Lungs, Mean” value (96 h after i.v. injection) was 0.4056 % ID/g. For the same compound, the “Organ distribution, Muscle, Mean” value (96 h after i.v. injection) was 0.3258 % ID/g, the “Organ distribution, Pancreas, Mean” value (96 h after i.v. injection) was 0.2861 % ID/g and the “Organ distribution, Small Intestine, Mean” value (96 h after i.v. injection) was 0.04492 % ID/g. The “Organ distribution, Spleen, Mean” value (96 h after i.v. injection) was 0.459 % ID/g, the “Organ distribution, Stomach, Mean” value (96 h after i.v. injection) was 0.03362 % ID/g and the “Organ distribution, Tumor, Mean” value (96 h after i.v. injection) was 4.857 % ID/g. For the same compound, the “uptake by other organs (other than kidneys and tumor)” value (96 h post injection) was under 1 % ID/g.
